# Data: patent US20250114346A1, “COMBINATION THERAPY USING A KRAS G12D INHIBITOR AND PD-1 INHIBITOR OR PD-L1 INHIBITOR” (Incyte Corporation, priority 2023, published 2025)
# Where “and” joins values, the source holds several entries; their conditions need not be identical. Equal entries are not always repeated. Structures can show the parent of a compound that is named as a salt.
# Assays:
# [1] = tested on: pERK (Phospho/Total ERK1/2) in CT-26 Clone 299 tumors; test: CT-26 Clone 299 pharmacodynamic model (pERK/total ERK in tumor lysates, MesoScale); assay type: in vivo, BALB/c-hPD1/hPDL1 mice
# Procedure: Female BALB/c-hPD1/hPDL1 mice (GemPharmatech, aged 8-10 weeks) were inoculated subcutaneously with 1.0×10^6 CT-26 Clone 299 cells suspended in phosphate buffered saline.
# Oral dose administration was continuous for 5 days and 2 doses of Retifanlimab was given. On day 5, plasma and tumor samples were collected 4 hour post oral dose and 24 hours post IP dose following CO2 asphyxiation. Blood was collected into ethylenediaminetetraacetic acid (450480 Greiner Bio-One) tubes. The plasma was analyzed for drug levels. Two tumor fragments per individual were collected and weighed into Omni Bead Ruptor tubes (19-628 Omni International) and flash frozen. One tumor piece was lysed at a 1:5 ratio with homogenization solution (water:acetonitrile:formic acid, 95:5:0.1, v:v:v) for drug concentration analysis. The second tumor piece was then lysed at a 1:5 ratio with lysis buffer (64KL1 FD, Cisbio) with added protease inhibitors (A32957 and A32965, Thermo Fisher) and Blocking Reagent (64KB1AAC, Cisbio) on a Bead Ruptor Elite homogenizer (19-042E, Omni International, Kennesaw, GA). Tumor lysates were spun at 10,000 revolutions per minute for 10 minutes at 4° C. The protein concentration was determined using the Pierce™ BCA Protein Assay method according to the manufacturer's protocol (23227 Thermo Fisher Scientific). The lysates were diluted with additional lysis buffer to a final concentration of 0.4 μg/μL. Samples were analyzed using the MesoScale Discovery Platform on the Phospho/Total ERK1/2 Whole Cell Lysate Kit (K15107D, MesoScale Discovery, Rockville, MD). The pERK levels were first normalized to total ERK for each sample and then to the average pERK/tERK ratio of the vehicle control group.
# CT-26 Clone 299 cells = test: CT-26 Clone 299 syngeneic efficacy model; assay type: in vivo, BALB/c-hPD1/hPDL1 mice; details: for monotherapy-treated mice succumbed to tumor growth: after treatment cessation, by day 43, Compound 1 at 100 mg/kg
# Procedure: BALB/c-hPD1/hPDL1 mice (GemPharmatech, strain #T004025) express human PDCD1 and CD274 (which encode the PD-1 and PD-L1 proteins, respectively) from the respective murine loci for those genes.
# For survival (Kaplan-Meier) analysis: in the Compound 1 study, events were recorded when tumor volumes reached 1700 mm^3 or mice met criteria for humane endpoint (e.g. body weight loss, tumor ulceration, overall condition); in the Compound 3 study, events were recorded when tumor volumes reached 2000 mm^3, when mice met criteria for humane endpoint, or upon confirmed recurrence following a complete response (confirmed recurrence defined as a growing tumor […] following a complete response as defined above).
compound,measurement,setting,value
"Cc1nc2c(F)c(-c3cccc(Cl)c3Cl)c(CCC#N)cc2c2c1cc([C@H]1C[C@H]3C[C@H]3N1C(=O)C1CC1)n2[C@H]1[C@H]2CN[C@@H]1C2 (atropisomer, axis not shown; (Ra)) [Compound 1, 3-((Ra)-1-((1R,4R,5S)-2-azabicyclo[2.1.1]hexan-5-yl)-2-((1R,3R,5R)-2-(cyclopropanecarbonyl)-2-azabicyclo[3.1.0]hexan-3-yl)-7-(2,3-dichlorophenyl)-6-fluoro-4-methyl-1H-pyrrolo[3,2-c]quinolin-8-yl)propanenitrile monohydrochloride dihydrate]","pERK/ERK Inhibition Relative to Vehicle Control (%, Mean)","[1]; 100 mg/kg Cmpd 1 QD, 4 Hr, monohydrochloride dihydrate",84% and 56% and 85% and 89%
"COC(=O)N1[C@@H]2C[C@@H]([C@@H](OC(F)F)C2)[C@@H]1c1cc2c(C)nc3c(F)c(-c4cccc(Cl)c4Cl)c(CCC#N)cc3c2n1[C@H]1[C@H]2CN[C@@H]1C2 (atropisomer, axis not shown; (Ra)) [Compound 3, Methyl (1R,3R,4R,5S)-3-((Ra)-1-((1R,4R,5S)-2-azabicyclo[2.1.1]hexan-5-yl)-8-(2-cyanoethyl)-7-(2,3-dichlorophenyl)-6-fluoro-4-methyl-1H-pyrrolo[3,2-c]quinolin-2-yl)-5-(difluoromethoxy)-2-azabicyclo[2.2.1]heptane-2-carboxylate]",TGI (tumor growth inhibition),"CT-26 Clone 299 cells; Compound 3 10 mg/kg BID PO monotherapy, day 34, vs vehicle (p=0.1127)",47%
same,TGI (tumor growth inhibition),"CT-26 Clone 299 cells; Compound 3 30 mg/kg BID PO monotherapy, day 34, vs vehicle (p=0.0411)",92%
"Cc1c(Nc2nc(C(F)F)nc3cc(CN4CC[C@@H](O)C4)cnc23)cccc1-c1cccc(-c2nc3cc(CN4CCC(C(=O)O)CC4)cc(C#N)c3o2)c1C [Compound 2, (R)-1-((7-Cyano-2-(3′-(2-(difluoromethyl)-7-((3-hydroxypyrrolidin-1-yl)methyl)pyrido[3,2-d]pyrimidin-4-ylamino)-2,2′-dimethylbiphenyl-3-yl)benzo[d]oxazol-5-yl)methyl)piperidine-4-carboxylic acid]",inhibition at 25 mg/kg,"[1]; Mus musculus, CT26, Compound 2 25 mg/kg BID, 5 days, 4-hour post dose",10%
same,TGI (tumor growth inhibition),"CT-26 Clone 299 cells; Compound 2 25 mg/kg BID PO monotherapy, day 25",17%
same,tumor growth,"CT-26 Clone 299 cells; Compound 2 25 mg/kg BID monotherapy, Compound 3 study",did not meaningfully alter tumor growth
same,monotherapy-treated mice succumbed to tumor growth,CT-26 Clone 299 cells,100%
retifanlimab: humanized IgG4 monoclonal antibody that binds to human PD-1 [reference compound],pERK inhibition,"[1]; retifanlimab 10 mg/kg BIW, 24 hours post second dose",18%
same,monotherapy-treated mice succumbed to tumor growth,CT-26 Clone 299 cells,90%
same,TGI (tumor growth inhibition),"CT-26 Clone 299 cells; retifanlimab 10 mg/kg BIW IP monotherapy, day 25, Compound 1 study",52%
same,TGI (tumor growth inhibition),"CT-26 Clone 299 cells; retifanlimab 10 mg/kg BIW monotherapy, day 34, Compound 3 study (p=0.0263)",74%
